Measurements: US20220096475A1, “METHOD FOR TREATING SARCOIDOSIS-ASSOCIATED PULMONARY HYPERTENSION” (ALTAVANT SCIENCES GmbH, priority 2018, published 2022)

Assays:
TPH1 = target: T1, TPH1 (Mus musculus, UniProt P17532); conditions: amorphous form; cited from earlier work
T1 construct: from tissue; host or cells: mice (in vivo)
T1 sequence (P17532 1-447): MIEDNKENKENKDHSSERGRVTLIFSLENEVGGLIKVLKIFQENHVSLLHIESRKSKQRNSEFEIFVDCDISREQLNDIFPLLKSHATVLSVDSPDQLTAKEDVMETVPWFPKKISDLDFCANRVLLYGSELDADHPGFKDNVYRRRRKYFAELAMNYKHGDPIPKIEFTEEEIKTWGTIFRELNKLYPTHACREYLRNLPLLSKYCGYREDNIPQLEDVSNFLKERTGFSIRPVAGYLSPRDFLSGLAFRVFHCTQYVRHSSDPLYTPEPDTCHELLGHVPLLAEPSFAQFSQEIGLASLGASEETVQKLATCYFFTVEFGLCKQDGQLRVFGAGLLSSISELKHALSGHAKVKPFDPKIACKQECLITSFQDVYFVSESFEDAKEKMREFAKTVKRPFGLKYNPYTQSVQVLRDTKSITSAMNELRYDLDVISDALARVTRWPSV

[1] = stability and shelf life of crystalline polymorphs; assay type: physicochemical; conditions: particularly at temperatures of less than 95° C.

Row | SMILES | efficacy in inhibiting TPH1 in mice (TPH1) | stability and shelf life compared to the crystalline Form 1 polymorph [1]
1 | CCOC(=O)[C@@H]1CC2(CCN(c3cc(O[C@H](c4ccc(Cl)cc4-c4ccccc4)C(F)(F)F)nc(N)n3)CC2)CN1 [Compound A, (S)-ethyl 8-(2-amino-6-((R)-1-(5-chloro-[1,1′-biphenyl]-2-yl)-2,2,2-trifluoroethoxy)pyrimidin-4-yl)-2,8-diazaspiro[4.5]decane-3-carboxylate] | demonstrated | –
2 | CCOC(=O)[C@@H]1CC2(CCN(c3cc(O[C@H](c4ccc(Cl)cc4-c4ccccc4)C(F)(F)F)nc(N)n3)CC2)CN1 [crystalline Form 3 polymorph, (S)-ethyl 8-(2-amino-6-((R)-1-(5-chloro-[1,1′-biphenyl]-2-yl)-2,2,2-trifluoroethoxy)pyrimidin-4-yl)-2,8-diazaspiro[4.5]decane-3-carboxylate] | – | substantially greater stability and shelf life
